Assay type in all cases: cell-based
For test [1], the system named is Target C CJ mRNA. The test can be described thus: Gene panel canonical junction qPCR assay: decrease in Target C CJ mRNA. The following applies: protocol as for Table 2, read-out: Target C (IC50, decrease in CJ mRNA levels). Here is the method:
(§1) Compounds described herein were used to modulate RNA transcript abundance in cells. The expression of a target mRNA was measured by detecting the formation of an exon-exon junction in the canonical transcript (CJ). A compound mediated exon-inclusion event was detected by observing an increase in formation of a new junction with an alternative exon (AJ). Real-time qPCR assays were used to detect these splicing switches and interrogate the potency of various compounds towards different target genes. A high-throughput real time quantitative PCR (RT-qPCR) assay was developed to measure these two isoforms of the mRNA (CJ and AJ) for an exemplary gene, HTT, together with a control housekeeping gene, GAPDH or GUSB or PPIA, used for normalization. Briefly, the A673 or K562 cell line was treated with various compounds described herein (e.g., compounds of Formula (I)). After treatment, the levels of the HTT mRNA targets were determined from each sample of cell lysate by cDNA synthesis followed by qPCR.
(§2) The A673 cell line was cultured in DMEM with 10% FBS. Cells were diluted with full growth media and plated in a 96-well plate (15,000 cells in 100 ul media per well). The plate was incubated at 37° C. with 5% CO2 for 24 hours to allow cells to adhere. An 11-point 3-fold serial dilution of the compounds was made in DMSO then diluted in media in an intermediate plate. Compounds were transferred from the intermediate plate to the cell plate with the top dose at a final concentration of 10 uM in the well. Final DMSO concentration was kept at or below 0.25%. The cell plate was returned to the incubator at 37° C. with 5% CO2 for an additional 24 hours.
(§3) The K562 cell line was cultured in IMDM with 10% FBS. For K562, cells were diluted with full growth media and plated in either a 96-well plate (50,000 cells in 50 uL media per well) or a 384-well plate (8,000-40,000 cells in 45 uL media per well). An 11-point 3-fold serial dilution of the compounds were made in DMSO then diluted in media in an intermediate plate. Compound was transferred from the intermediate plate to the cell plate with the top dose at a final concentration of 10 uM in the well. Final DMSO concentration was kept at or below 0.25%. Final volume was 100 uL for 96-well plate and 50 uL for 384-well plate. The cell plate was then placed in an incubator at 37° C. with 5% CO2 for 24 hours.
(§4) The cells were then gently washed with 50 uL-100 uL cold PBS before proceeding to addition of lysis buffer. 30 uL-50 uL of room temperature lysis buffer with DNAse I (and optionally RNAsin) was added to each well. Cells were shaken/mixed thoroughly at room temperature for 5-10 minutes for lysis to take place and then 3 uL-5 uL of room temperature stop solution was added and wells were shaken/mixed again. After 2-5 minutes, the cell lysate plate was transferred to ice for RT-qPCR reaction setup. The lysates could also be frozen at −80° C. for later use.
(§5) In some cases, a direct lysis buffer was used. An appropriate volume of 3× lysis buffer (10 mM Tris, 150 mM NaCl, 1.5%-2.5% Igepal and 0.1-1 U/uL RNAsin, pH 7.4) was directly added to either K562 or A673 cells in media and mixed by pipetting 3 times. The plates were then incubated at room temperature with shaking/rocking for 20-50 minutes to allow for lysis to take place. After this time, the cell lysate plate was transferred to ice to set up for the RT-qPCR reactions. The lysates could also be frozen at −80° C. for later use.
(§6) To set up 10 uL RT-qPCR reactions, cell lysates were transferred to 384-well qPCR plates containing the master mix according to the table below. The plates were sealed, gently vortexed, and spun down before the run. The volumes were adjusted accordingly in some instances where the reaction was carried in 20 uL. The table below summarizes the components of the RT-qPCR reactions:
(§7) The RT-qPCR reaction was performed using a QuantStudio (ThermoFisher) under the following fast cycling conditions. […]
A general note: Real-time PCR tracks product formation cycle by cycle.

Test [2] concerns HTT CJ mRNA. As to the kind of experiment: Gene panel canonical junction qPCR assay: decrease in HTT CJ mRNA. Particulars: protocol as for Table 2, read-out: HTT (IC50, decrease in CJ mRNA levels). Here is the method:
as §1, §2, §3, §4, §5, §6, §7

For test [3], the system named is HTT mRNA, alternative junction (AJ). The test can be described thus: Splicing assay (RT-qPCR): increase in HTT alternative junction (AJ) mRNA. The following applies: A673 or K562 cell line, 24 hours treatment, top dose 10 uM; concentration having 50% response in AJ increase. Here is the method: as §1
(§8) • Cells-to-CT 1-step kit: ThermoFisher A25602, Cells-to-CT lysis reagent: ThermoFisher 4391851C, TaqMan™ Fast Virus 1-Step Master Mix: ThermoFisher 4444436 • GAPDH: VIC-PL, ThermoFisher 4326317E (Assay: Hs99999905_ml)—used for K562/suspension cell lines • GUSB: VIC-PL, ThermoFisher 4326320E (Assay: Hs99999908_ml)—used for K562/suspension cell lines • PPIA: VIC-PL, ThermoFisher 4326316E (Assay: Hs99999904_ml)—used for A673/adherent cell lines
as §2, §3, §4
(§9) In some cases, a direct lysis buffer was used. An appropriate volume of 3× lysis buffer (10 mM Tris, 150 mM NaCl, 1.5%-2.5% Igepal and 0.1-1 U/uL RNAsin, pH 7.4) was directly added to either K562 or A673 cells in media and mixed by pipetting 3 times. The plates were then incubated at room temperature with shaking/rocking for 20-50 minutes to allow for lysis to take place. After this time, the cell lysate plate was transferred to ice to set up for the RT-qPCR reactions. The lysates could also be frozen at −80° C. for later use. […]

Test [4] deals with SMN2 CJ mRNA. As to the kind of experiment: Gene panel canonical junction qPCR assay: decrease in SMN2 CJ mRNA. The following applies: protocol as for Table 2, read-out: SMN2 (IC50, decrease in CJ mRNA levels). Here is the method:
as §1, §2, §3, §4, §5, §6, §7

Test [5] relates to HTT mRNA, canonical junction (CJ). As to the kind of experiment: Splicing assay (RT-qPCR): decrease in HTT canonical junction (CJ) mRNA. Particulars: A673 or K562 cell line, 24 hours treatment, top dose 10 uM; concentration having 50% response in CJ decrease. As for the experimental part: as §1, §8, §2, §3, §4, §9

Turning to `Cc1cn2cc(NC(=O)c3ccc(N4CCN(C)C(C)C4)c4ccnnc34)cc(F)c2n1` (stereo in doubt) [Compound 150, 5-[(3R)-3,4-dimethylpiperazin-1-yl]-N-[8-fluoro-2-methylimidazo[1,2-a]pyridin-6-yl]cinnoline-8-carboxamide], the IC50 in test [1] is 1 to 10 µM; in test [2] it was 1 to 10 µM; in test [4], below 0.1 µM. Besides, the AC50 in test [3] and in test [5] was 1 to 10 µM throughout.
In the case of `CCC1CN(c2ccc(C(=O)Nc3cc(F)c4nc(C)cn4c3)c3nnccc23)CCN1` (stereo in doubt) [Compound 151, 5-[(3S)-3-ethylpiperazin-1-yl]-N-[8-fluoro-2-methylimidazo[1,2-a]pyridin-6-yl]cinnoline-8-carboxamide], the IC50 in test [1] was above 10 µM; in test [2], 1 to 10 µM; in test [4], below 0.1 µM. The AC50 in test [3] and in test [5] was 1 to 10 µM in each case.
Consider `CCC1CN(c2ccc(C(=O)Nc3cc(F)c4nc(C)cn4c3)c3nnccc23)CCN1` (stereo in doubt) [Compound 152, 5-[(3R)-3-ethylpiperazin-1-yl]-N-[8-fluoro-2-methylimidazo[1,2-a]pyridin-6-yl]cinnoline-8-carboxamide], for which the IC50 in test [1] was above 10 µM; in test [2], 1 to 10 µM; in test [4], below 0.1 µM. Further, the AC50 in test [3] and in test [5] was 1 to 10 µM throughout.
On to `Cc1cn2cc(NC(=O)c3ccc(N4CCN5CCCC5C4)c4ccnnc34)cc(F)c2n1` (stereo in doubt) [Compound 153, 5-[(8aS)-hexahydro-1H-pyrrolo[1,2-a]pyrazin-2-yl]-N-[8-fluoro-2-methylimidazo[1,2-a]pyridin-6-yl]cinnoline-8-carboxamide], for which the IC50 in test [1] is 1 to 10 µM; in test [2] it was 0.1 to 1 µM; in test [4], below 0.1 µM. For the same molecule, the AC50 in test [3] and in test [5] was 0.1 to 1 µM each time.
As for `Cc1cn2cc(NC(=O)c3ccc(N4CCN5CCCC5C4)c4ccnnc34)cc(F)c2n1` (stereo in doubt) [Compound 154, 5-[(8aR)-hexahydro-1H-pyrrolo[1,2-a]pyrazin-2-yl]-N-[8-fluoro-2-methylimidazo[1,2-a]pyridin-6-yl]cinnoline-8-carboxamide], the results for the IC50 in test [1], in test [2] and in test [4] were 0.1 to 1 µM, 1 to 10 µM and below 0.1 µM, respectively. Besides, the AC50 in test [3] and in test [5] was 1 to 10 µM each time.
As for `Cc1cn2nc(NC(=O)c3ccc(N4CCNCC4)c4ccnnc34)cc(C)c2n1` [Compound 100, N-[2,8-dimethylimidazo[1,2-b]pyridazin-6-yl]-5-(piperazin-1-yl)cinnoline-8-carboxamide], the IC50 in test [1], in test [2] and in test [4] was 0.1 to 1 µM in each case. Further, the half-maximal activity concentration (AC50) in test [3] and in test [5] was 0.1 to 1 µM in each case.
On to `Cc1cn2cc(NC(=O)c3ccc(N4CCNCC4)c4ccnnc34)cc(F)c2n1` [Compound 101, N-[8-fluoro-2-methylimidazo[1,2-a]pyridin-6-yl]-5-(piperazin-1-yl) cinnoline-8-carboxamide], for which the half-maximal inhibitory concentration (IC50) in test [1] was 1 to 10 µM; in test [2], 0.1 to 1 µM; in test [4], below 0.1 µM. For the same molecule, the AC50 in test [3] and in test [5] was 0.1 to 1 µM each time.
On to `Cc1cn2cc(NC(=O)c3ccc(C4CCNCC4)c4ccnnc34)cc(F)c2n1` [Compound 103, N-[8-fluoro-2-methylimidazo[1,2-a]pyridin-6-yl]-5-(piperidin-4-yl) cinnoline-8-carboxamide], for which the IC50 in test [1] lay in the range of 1 to 10 µM; in test [2], 0.1 to 1 µM; in test [4], 1 to 10 µM. In addition, the AC50 is 0.1 to 1 µM in test [3] and 1 to 10 µM in test [5].
Turning to `Cc1cn2cc(NC(=O)c3ccc(N4C[C@H]5CC[C@@H](C4)N5)c4ccnnc34)cc(F)c2n1` [Compound 108], the IC50 in test [1] was 0.1 to 1 µM; in test [2] it was 1 to 10 µM; in test [4], below 0.1 µM. The AC50 in test [3] and in test [5] was 1 to 10 µM each time.
As to `Cc1cn2cc(NC(=O)c3ccc(N4CCNCC4)c4nccnc34)cc(F)c2n1` [Compound 111, N-[8-fluoro-2-methylimidazo[1,2-a]pyridin-6-yl]-8-(piperazin-1-yl) quinoxaline-5-carboxamide], the figures for the IC50 in test [1], in test [2] and in test [4] were 0.1 to 1 µM, 1 to 10 µM and below 0.1 µM, respectively. Further, the AC50 in test [3] and in test [5] was 1 to 10 µM each time.
Turning to `Cc1cn2cc(NC(=O)c3ccc(N4CCNCC4)c4cncnc34)cc(F)c2n1` [Compound 112, N-[8-fluoro-2-methylimidazo[1,2-a]pyridin-6-yl]-5-(piperazin-1-yl)quinazoline-8-carboxamide], the IC50 is 0.1 to 1 µM in test [1], 1 to 10 µM in test [2] and below 0.1 µM in test [4]. Further, the concentration at half-maximal activity (AC50) in test [3] and in test [5] was 1 to 10 µM each time.
As to `Cc1cn2nc(NC(=O)c3ccc(C4CCNCC4)c4ccnnc34)cc(C)c2n1` [Compound 113, N-[2,8-dimethylimidazo[1,2-b]pyridazin-6-yl]-5-(piperidin-4-yl) cinnoline-8-carboxamide], the results for the IC50 in test [1], in test [2] and in test [4] were 1 to 10 µM, 1 to 10 µM and 0.1 to 1 µM, respectively. Also, the AC50 in test [3] and in test [5] was 1 to 10 µM each time.
`Cn1cc2ccc(NC(=O)c3ccc(N4CCNCC4)c4ccnnc34)cc2n1` [Compound 115, N-(2-methylindazol-6-yl)-5-(piperazin-1-yl) cinnoline-8-carboxamide]: the IC50 in test [1], in test [2] and in test [4] was above 10 µM each time. Further, the AC50 in test [3] and in test [5] was above 10 µM each time.
As to `Cn1cc2c(F)cc(NC(=O)c3ccc(N4CCNCC4)c4ccnnc34)cc2n1` [Compound 116, N-(4-fluoro-2-methylindazol-6-yl)-5-(piperazin-1-yl) cinnoline-8-carboxamide], the IC50 in test [1], in test [2] and in test [4] was above 10 µM throughout. Also, the AC50 in test [3] and in test [5] was above 10 µM in each case.

As a reminder, the IC50 is the concentration needed to halve the response being measured. As usually defined, the AC50 is the concentration at which the activity in the assay is half-maximal. A higher AC50 goes with weaker potency.

(Values after patent publication US20240226098A1, “COMPOUNDS AND METHODS FOR MODULATING SPLICING” (REMIX THERAPEUTICS INC., priority 2020, published 2024).)
